Like-named read-outs stand apart in the source and are kept apart here.

Series [1] concerns HCT116 line (human colon cancer cell line). The series is described as follows: Antiproliferative (cytotoxic) activity on HCT116 line, ATPLite cell viability, 72 hours. In kind it is cell-based. The note with it: read-out: HCT116 (EC50). As for the experimental part: 2.1. Antiproliferative Activity of the Compounds According to the Invention (IC50 in M)
Culture of Lines and Measurement of Cell Viability:
The HCT116 line (ATCC, CCL-247) derived from colon cancer was cultured in MEM (Minimum Essential Medium Eagle) supplemented with 2 mM L-glutamine (Sigma, G7513), 5% fetal calf serum (Sigma, F7524) and antibiotics (Sigma, A59-55). The protocol for determining cytotoxic activity consists in seeding cells on 96-well plates (Perkin Elmer, 6005668) at a density of 1500 cells per well. After 24 hours of incubation, the test compound is applied in each well, using serial dilutions in the solvent dimethylsulfoxide (DMSO) (Sigma, D8418), from 10 mM stock solutions in 100% DMSO. Each dilution was added to the cells 24 hours after seeding. Under these conditions, the final solvent concentration is 0.1% DMSO. A reading of cell proliferation was carried out 72 hours after addition of the products with the ATPLite™ kit (Perkin Elmer, 6016947) and according to the manufacturer's recommendations. The analysis of the proliferation results was carried out by comparison with conditions where only the carrier solvent (culture medium, 0.1% DMSO) was added to the cells. The dose-response curves obtained were analyzed using the PRISM 4.03 software (GraphPad Software Inc.), or by an equivalent analytical method, to determine the concentration of each compound which inhibits 50% of cell proliferation (EC50).
By way of example, the cytotoxic properties of several compounds of the invention evaluated on the HCT116 line (human colon cancer cell line) are reported in Table 1.
(Cellular ATP, detected with luciferase, serves as a proxy for viable cell number.)

In series [2] the test system is MDA-MB-231 human tumor xenograft. As to the kind of experiment: Antitumor activity, subcutaneous MDA-MB-231 breast cancer xenografts in SCID mice. In kind it is in vivo. The following applies: for Activity: q1d5 × 3, MDA-MB-231; for Deaths (%): q1d5 × 3, SCID mice. Here is the method:
Subcutaneous xenografts were established with MDA-MD-231 breast cancer cells (ATCC: HTB-26) in SCID mice (Harlan, U.K.). The animals were treated and cared after in accordance with the Guide For the Care and Use of Laboratory Animals (National Research Council, 1996) and with European Directive 86/609/EEC, under the supervision of a staff expert authorized to conduct experimental studies with laboratory animals.
All the experiments were conducted pursuant to French and local regulations (Department of Veterinary Services, Haute-Garonne, Toulouse) according to the directives of an ethics committee, based on the UKCCCR Guidelines for the Welfare of Animals in Experimental Neoplasia, as indicated above. The implantation of MDA-MB-231 human tumor fragments is carried subcutaneously in the flanks of SCID mice using a trocar and, for the study of tumor growth, the tumors are allowed to reach a median volume of 70-130 mm^3 before starting the studies.
After randomization in the treatment cages, the inhibitors were administered intravenously according to a g1d5×3 treatment scheme (5 injections per week for 3 weeks). The mice were monitored and weighed daily. The tumors were measured with a slide caliper and the tumor volumes (mm^3) were estimated using the following formula: volume=0.5 (length×width^2). Each experimental group consists of 5 individuals. The efficacy of the treatment was evaluated by analysis of the measurement of the median volume of the treated tumors compared with the median volume of the tumors receiving only carrier (control). The T/C evaluation criterion corresponds to: [(median volume of the treated group, T/median volume of the control group, C)×100]. This T/C ratio is expressed as a percentage. The optimal T/C value corresponds to the ratio which reflects the maximum inhibition of growth obtained during the study. The maximum gains or losses of weight, expressed as a percentage of the initial weight of the animals, as well as the percentage of drug-related deaths (i.e., the percentage of treated animals that died before the assessment) were used to provide an evaluation of the toxicity of the compounds. In accordance with the NCI (National Cancer Institute) criterion, a dose is deemed toxic if it induces weight loss greater than −20% relative to the initial weight of the mouse or if it induces more than 20% deaths (Corbett et al. J Exp Ther Oncol 1996, 1:95-108).

The mark [3] stands for this setting: HCT-116, HCT116, 72 hours after addition, ATPLite.
[4] abbreviates: Mus musculus, MDA-MB-231, iv, read-out: Opt. T/C (%).

The term EC50 denotes the concentration needed to bring the measured effect to its halfway point. `COC(=O)[C@H]1[C@@H](O)[C@@]2(O)c3c(OC)cc(OCCCCN)cc3O[C@@]2(c2ccc(OC)cc2)[C@@H]1c1ccccc1` (racemic) [Compound 8, rac-(1R,2R,3S,3aR,8bS)-methyl 6-(4-aminobutoxy)-1,8b-dihydroxy-8-methoxy-3a-(4-methoxyphenyl)-3-phenyl-2,3,3a,8b-tetrahydro-1H-cyclopenta[b]benzofuran-2-carboxylate]: the concentration giving a half-maximal response (EC50) in series [1] (HCT-116, 72 h) amounted to 2.61 nM.
Consider `CN[C@H]1[C@@H](O)[C@@]2(O)c3c(OC)cc(OC)cc3O[C@@]2(c2ccc(OC)cc2)[C@@H]1c1ccccc1` (racemic) [Compound 15, rac-(1R,2R,3R,3aR,8bS)-6,8-dimethoxy-3a-(4-methoxyphenyl)-2-(methylamino)-3-phenyl-1,2,3,3a-tetrahydro-8bH-cyclopenta[b]benzofuran-1,8b-diol], for which the EC50 in series [1] (setting [3]) turned out to be 3.83 nM.
Take `COc1ccc([C@@]23Oc4cc(OC)cc(OC)c4[C@]2(O)[C@H](O)[C@H](c2nnc(N)o2)[C@H]3c2ccccc2)cc1` (racemic) [Compound 18, rac-(1R,2R,3S,3aR,8bS)-2-(5-amino-1,3,4-oxadiazol-2-yl)-6,8-dimethoxy-3a-(4-methoxyphenyl)-3-phenyl-2,3,3a,8b-tetrahydro-1H-cyclopenta[b]benzofuran-1,8b-diol]: in series [2] (2.5 mg/kg intravenously), the result was Active and the “Deaths (%)” value came to 0%. In addition, in series [2] (3.5 mg/kg intravenously), the result was Active and the “Deaths (%)” value is reported as 0%. In series [2] (setting [4]), the response vs control in vivo at 2.5 mg/kg worked out at 40% and the response vs control in vivo at 3.5 mg/kg was 6%.
In the case of `COc1ccc([C@@]23Oc4cc(OCCN(C)C)cc(OC)c4[C@]2(O)[C@H](O)[C@H](c2nnc(N)o2)[C@H]3c2ccccc2)cc1` (racemic) [Compound 21, rac-(1R,2R,3S,3aR,8bS)-2-(5-amino-1,3,4-oxadiazol-2-yl)-6-(2-(dimethylamino)ethoxy)-8-methoxy-3a-(4-methoxyphenyl)-3-phenyl-2,3,3a,8b-tetrahydro-1H-cyclopenta[b]benzofuran-1,8b-diol], in series [2] (1 mg/kg intravenously), the outcome was Active and the “Deaths (%)” value is reported as 0%. For the same molecule, in series [2] (setting [4]), the response vs control in vivo at 1 mg/kg is 22%.
With `COc1ccc([C@@]23Oc4cc(OCCN5CCN(C)CC5)cc(OC)c4[C@]2(O)[C@H](O)[C@H](c2nnc(N)o2)[C@H]3c2ccccc2)cc1` (racemic) [Compound 22, rac-(1R,2R,3S,3aR,8bS)-2-(5-amino-1,3,4-oxadiazol-2-yl)-8-methoxy-3a-(4-methoxyphenyl)-6-(2-(4-methylpiperazin-1-yl)ethoxy)-3-phenyl-2,3,3a,8b-tetrahydro-1H-cyclopenta[b]benzofuran-1,8b-diol], in series [2] (1.4 mg/kg intravenously), the result was Active and the “Deaths (%)” value stood at 0%. In series [2] (setting [4]), the response vs control in vivo at 1.4 mg/kg was 21%.
In the case of `CNc1nnc([C@H]2[C@@H](O)[C@@]3(O)c4c(OC)cc(OC)cc4O[C@@]3(c3ccc(OC)cc3)[C@@H]2c2ccccc2)o1` (racemic) [Compound 24, rac-(1R,2R,3S,3aR,8bS)-6,8-dimethoxy-3a-(4-methoxyphenyl)-2-(5-(methylamino)-1,3,4-oxadiazol-2-yl)-3-phenyl-2,3,3a,8b-tetrahydro-1H-cyclopenta[b]benzofuran-1,8b-diol], in series [2] (2.8 mg/kg intravenously), the outcome was Active and the “Deaths (%)” value is 0%. The response vs control in vivo at 2.8 mg/kg in series [2] (setting [4]) came to 25%.
Turning to `COc1ccc([C@@]23Oc4cc(OC)cc(OC)c4[C@]2(O)[C@H](O)[C@H](c2nnc(C)[nH]2)[C@H]3c2ccccc2)cc1` (racemic) [Compound 30, rac-(1R,2S,3S,3aR,8bS)-6,8-dimethoxy-3a-(4-methoxyphenyl)-2-(5-methyl-4H-1,2,4-triazol-3-yl)-3-phenyl-2,3,3a,8b-tetrahydro-1H-cyclopenta[b]benzofuran-1,8b-diol], in series [2] (0.7 mg/kg intravenously), the outcome was Active and the “Deaths (%)” value came to 0%. Moreover, in series [2] (setting [4]), the response vs control in vivo at 0.7 mg/kg came to 15%.
`COc1ccc([C@@]23Oc4cc(OC)cc(OC)c4[C@]2(O)[C@@H]2OC(=O)N[C@@H]2[C@H]3c2ccccc2)cc1` (racemic) [Compound 40, rac-(3aR,4R,4aR,9bS,9cR)-9b-hydroxy-7,9-dimethoxy-4a-(4-methoxyphenyl)-4-phenyl-3,3a,4,4a,9b,9c-hexahydro-2H-benzofuro[3′,2′:3,4]cyclopenta[1,2-d]oxazol-2-one]: in series [1] (setting [3]), the concentration giving a half-maximal response (EC50) was found to be 2.52 nM.
Consider `COc1ccc([C@@]23Oc4cc(OCCCC(O)CO)cc(OC)c4[C@]2(O)[C@@H]2OC(=O)N[C@@H]2[C@H]3c2ccccc2)cc1` (mixture of isomers) [Compound 41, rac-(3aR,4R,4aR,9bS,9cR)-7-((4,5-dihydroxypentyl)oxy)-9b-hydroxy-9-methoxy-4a-(4-methoxyphenyl)-4-phenyl-3,3a,4,4a,9b,9c-hexahydro-2H-benzofuro[3′,2′:3,4]cyclopenta[1,2-d]oxazol-2-one], for which, in series [1] (setting [3]), the EC50 worked out at 4.2 nM.
On the same count and under the same terms, the figure for `COc1ccc([C@@]23Oc4cc(OCCCCO)cc(OC)c4[C@]2(O)[C@@H]2OC(=O)N[C@@H]2[C@H]3c2ccccc2)cc1` (racemic) [Compound 42, rac-(3aR,4R,4aR,9bS,9cR)-9b-hydroxy-7-(4-hydroxybutoxy)-9-methoxy-4a-(4-methoxyphenyl)-4-phenyl-3,3a,4,4a,9b,9c-hexahydro-2H-benzofuro[3′,2′:3,4]cyclopenta[1,2-d]oxazol-2-one] is 2.16 nM; for `COc1ccc([C@@]23Oc4cc(OC)cc(OC)c4[C@]2(O)[C@@H]2OC(N)=N[C@@H]2[C@H]3c2ccccc2)cc1` (racemic) [Compound 47, rac-(3aR,4R,4aR,9bS,9cR)-2-amino-7,9-dimethoxy-4a-(4-methoxyphenyl)-4-phenyl-4,4a,9b,9c-tetrahydro-3aH-benzofuro[3′,2′:3,4]cyclopenta[1,2-d]oxazol-9b-ol] it is 1.1 nM.
The same measure, in the same setting: the value for `COC(=O)[C@H]1[C@@H](O)[C@@]2(O)c3c(OC)cc(OCCCCN(C)C)cc3O[C@@]2(c2ccc(OC)cc2)[C@@H]1c1ccccc1` (racemic) [Compound 52, rac-methyl (1R,2R,3S,3aR,8bS)-6-(4-(dimethylamino)butoxy)-1,8b-dihydroxy-8-methoxy-3a-(4-methoxyphenyl)-3-phenyl-2,3,3a,8b-tetrahydro-1H-cyclopenta[b]benzofuran-2-carboxylate] was 4.9 nM.
Turning to `COc1ccc([C@@]23Oc4cc(OC)cc(OC)c4[C@]2(O)[C@H](O)[C@H](c2nnc(N)o2)[C@H]3c2ccccc2)cc1` [Compound 19, (1R,2R,3S,3aR,8bS)-2-(5-amino-1,3,4-oxadiazol-2-yl)-6,8-dimethoxy-3a-(4-methoxyphenyl)-3-phenyl-2,3,3a,8b-tetrahydro-1H-cyclopenta[b]benzofuran-1,8b-diol], in series [2] (1.3 mg/kg intravenously), the result was Active and the “Deaths (%)” value amounted to 0%. The response vs control in vivo at 1.3 mg/kg in series [2] (setting [4]) worked out at 26%.

For the origin of these results see patent publication US10519125B2, “Flavagline derivatives” (PIERRE FABRE MEDICAMENT, priority 2014, dated 2019).
